Source: patent US6737383B1, “Herbicidal oxadiazolidines” (priority 1999, dated 2004)

Legend:
sugar beet = experiment: Test B pre/postemergence sugar beet; format: in vivo, Beta vulgaris
Procedure, shortened: (§1)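 Test chemicals in a non-phytotoxic solvent mixture with surfactant were sprayed preemergence onto planted seeds and postemergence onto plants 2 to 18 cm tall (1- to 4-leaf stage). After twelve to sixteen days in a greenhouse, injury was visually rated against untreated controls from 0 (no effect) to 10 (complete control).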

cocklebur = experiment: Test B pre/postemergence cocklebur; format: in vivo, Xanthium strumarium
Procedure, shortened: as §1

surinam grass = experiment: Test B pre/postemergence surinam grass; format: in vivo, Brachiaria decumbens
Procedure, shortened: as §1

rape = experiment: Test B pre/postemergence rape; format: in vivo, Brassica napus
Procedure, shortened: as §1

bedstraw = experiment: Test B pre/postemergence bedstraw; format: in vivo, Galium aparine
Procedure, shortened: as §1

corn = experiment: Test B pre/postemergence corn; format: in vivo, Zea mays
Procedure, shortened: as §1

purple nutsedge = experiment: Test B pre/postemergence purple nutsedge; format: in vivo, Cyperus rotundus
Procedure, shortened: as §1

velvetleaf = experiment: Test B pre/postemergence velvetleaf; format: in vivo, Abutilon theophrasti
Procedure, shortened: as §1

smallflower flatsedge = experiment: Test B flood test smallflower flatsedge; format: in vivo, Cyperus difformis
Procedure, shortened: (§2)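 Read-out is a visual response score from 0 (no effect) to 10 (complete control), assigned by comparison with untreated controls. Treatment was applied at the 2-leaf stage, and plants stayed in the greenhouse for twelve to sixteen days before scoring.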

crabgrass = experiment: Test B pre/postemergence crabgrass; format: in vivo, Digitaria sanguinalis
Procedure, shortened: as §1

duck salad = experiment: Test B flood test duck salad; format: in vivo, Heteranthera limosa
Procedure, shortened: as §2

wheat = experiment: Test B pre/postemergence wheat; format: in vivo, Triticum aestivum
Procedure, shortened: as §1

blackgrass = experiment: Test B pre/postemergence blackgrass; format: in vivo, Alopecurus myosuroides
Procedure, shortened: as §1

morningglory = experiment: Test B pre/postemergence morningglory; format: in vivo, Ipomoea hederacea
Procedure, shortened: as §1

wild oat = experiment: Test B pre/postemergence wild oat; format: in vivo, Avena fatua
Procedure, shortened: as §1

pigweed = experiment: Test B pre/postemergence pigweed; format: in vivo, Amaranthus retroflexus
Procedure, shortened: as §1

[1] = Postemergence, Rate 62 g/ha, scale 0 to 10, 0 is no effect, 10 is complete control
[2] = Postemergence, Rate 250 g/ha, scale 0 to 10, 0 no effect, 10 complete control
[3] = Preemergence, Rate 62 g/ha, scale 0 to 10 (0 no effect, 10 complete control)
[4] = Preemergence, Rate 125 g/ha, scale 0 to 10 (0 no effect, 10 complete control)
[5] = Preemergence, Rate 250 g/ha, scale of 0 to 10 where 0 is no effect and 10 is complete control
[6] = Preemergence, Rate 500 g/ha, scale 0 (no effect) to 10 (complete control)
[7] = Rate 125 g/ha, Postemergence, scale 0 to 10, 0 no effect, 10 complete control
[8] = Rate 500 g/ha, Postemergence, scale 0 to 10, 0 no effect, 10 complete control
[9] = Rate 62 g/ha, headed Pre-emergence (flood test species), scale 0 to 10 (0 no effect, 10 complete control)
[10] = Rate 125 g/ha, Pre-emergence, flood test species, scale 0 to 10 where 0 is no effect and 10 is complete control
[11] = Rate 250 g/ha, headed Pre-emergence (flood test species), scale 0 to 10 (0 no effect, 10 complete control)
[12] = Rate 500 g/ha, headed Pre-emergence (flood test species), scale 0 to 10 (0 no effect, 10 complete control)

Cc1cccc(C)c1-n1c(=O)on(C(=O)N(Cc2ccccc2)C(C)C)c1=O [Compound 69]
2: Velvetleaf plant response rating (velvetleaf; [8]) | Plant response rating, Crabgrass (crabgrass; [5])
6: Bedstraw plant response rating (bedstraw; [8])
5: Bedstraw plant response rating (bedstraw; [2])
4: Bedstraw plant response rating (bedstraw; [7]) | Crabgrass plant response rating (crabgrass; [6])
0: Sugarbeets plant response rating (sugar beet; [1]) | Sugarbeets plant response rating (sugar beet; [2]) | Sugarbeets plant response rating (sugar beet; [3]) | Plant response rating, Sugarbeets (sugar beet; [4]) | Plant response rating, Sugarbeets (sugar beet; [5]) | Sugarbeets plant response rating (sugar beet; [6]) | Sugarbeets plant response rating (sugar beet; [7]) | Sugarbeets plant response rating (sugar beet; [8]) | Cocklebur plant response rating (cocklebur; [1]) | Cocklebur plant response rating (cocklebur; [2]) | Cocklebur plant response rating (cocklebur; [3]) | Plant response rating, Cocklebur (cocklebur; [4]) | Plant response rating, Cocklebur (cocklebur; [5]) | Cocklebur plant response rating (cocklebur; [6]) | Cocklebur plant response rating (cocklebur; [7]) | Cocklebur plant response rating (cocklebur; [8]) | B. signalgrass plant response rating (surinam grass; [1]) | B. signalgrass plant response rating (surinam grass; [2]) | B. signalgrass plant response rating (surinam grass; [3]) | Plant response rating, B. signalgrass (surinam grass; [4]) | Plant response rating, B. signalgrass (surinam grass; [5]) | B. signalgrass plant response rating (surinam grass; [6]) | B. signalgrass plant response rating (surinam grass; [7]) | Rape plant response rating (rape; [1]) | Rape plant response rating (rape; [2]) | Rape plant response rating (rape; [3]) | Plant response rating, Rape (rape; [4]) | Plant response rating, Rape (rape; [5]) | Rape plant response rating (rape; [6]) | Rape plant response rating (rape; [7]) | Rape plant response rating (rape; [8]) | Bedstraw plant response rating (bedstraw; [1]) | Bedstraw plant response rating (bedstraw; [3]) | Plant response rating, Bedstraw (bedstraw; [4]) | Plant response rating, Bedstraw (bedstraw; [5]) | Bedstraw plant response rating (bedstraw; [6]) | Corn plant response rating (corn; [1]) | Corn plant response rating (corn; [2]) | Corn plant response rating (corn; [3]) | Plant response rating, Corn (corn; [4]) | Plant response rating, Corn (corn; [5]) | Corn plant response rating (corn; [6]) | Corn plant response rating (corn; [7]) | Corn plant response rating (corn; [8]) | Nutsedge plant response rating (purple nutsedge; [1]) | Nutsedge plant response rating (purple nutsedge; [2]) | Nutsedge plant response rating (purple nutsedge; [3]) | Plant response rating, Nutsedge (purple nutsedge; [4]) | Plant response rating, Nutsedge (purple nutsedge; [5]) | Nutsedge plant response rating (purple nutsedge; [6]) | Nutsedge plant response rating (purple nutsedge; [7]) | Nutsedge plant response rating (purple nutsedge; [8]) | Velvetleaf plant response rating (velvetleaf; [1]) | Velvetleaf plant response rating (velvetleaf; [2]) | Velvetleaf plant response rating (velvetleaf; [3]) | Plant response rating, Velvetleaf (velvetleaf; [4]) | Plant response rating, Velvetleaf (velvetleaf; [5]) | Velvetleaf plant response rating (velvetleaf; [6]) | Velvetleaf plant response rating (velvetleaf; [7]) | S. Flatsedge plant response rating (smallflower flatsedge; [9]) | S. Flatsedge plant response rating (smallflower flatsedge; [10]) | S. Flatsedge plant response rating (smallflower flatsedge; [11]) | Plant response rating, S. Flatsedge (smallflower flatsedge; [12]) | Crabgrass plant response rating (crabgrass; [1]) | Crabgrass plant response rating (crabgrass; [3]) | Plant response rating, Crabgrass (crabgrass; [4]) | Crabgrass plant response rating (crabgrass; [7]) | Ducksalad plant response rating (duck salad; [9]) | Ducksalad plant response rating (duck salad; [10]) | Ducksalad plant response rating (duck salad; [11]) | Plant response rating, Ducksalad (duck salad; [12]) | Wheat plant response rating (wheat; [1]) | Wheat plant response rating (wheat; [2]) | Wheat plant response rating (wheat; [3]) | Plant response rating, Wheat (wheat; [4]) | Plant response rating, Wheat (wheat; [5]) | Wheat plant response rating (wheat; [6]) | Wheat plant response rating (wheat; [7]) | Wheat plant response rating (wheat; [8]) | Blackgrass plant response rating (blackgrass; [1]) | Blackgrass plant response rating (blackgrass; [2]) | Blackgrass plant response rating (blackgrass; [3]) | Plant response rating, Blackgrass (blackgrass; [4]) | Plant response rating, Blackgrass (blackgrass; [5]) | Blackgrass plant response rating (blackgrass; [6]) | Blackgrass plant response rating (blackgrass; [7]) | Blackgrass plant response rating (blackgrass; [8]) | Morningglory plant response rating (morningglory; [1]) | Morningglory plant response rating (morningglory; [2]) | Morningglory plant response rating (morningglory; [3]) | Plant response rating, Morningglory (morningglory; [4]) | Plant response rating, Morningglory (morningglory; [5]) | Morningglory plant response rating (morningglory; [6]) | Morningglory plant response rating (morningglory; [7]) | Morningglory plant response rating (morningglory; [8]) | Wild oats plant response rating (wild oat; [1]) | Wild oats plant response rating (wild oat; [2]) | Wild oats plant response rating (wild oat; [3]) | Plant response rating, Wild oats (wild oat; [4]) | Plant response rating, Wild oats (wild oat; [5]) | Wild oats plant response rating (wild oat; [6]) | Wild oats plant response rating (wild oat; [7]) | Wild oats plant response rating (wild oat; [8]) | Redroot pigweed plant response rating (pigweed; [1]) | Redroot pigweed plant response rating (pigweed; [2]) | Redroot pigweed plant response rating (pigweed; [3]) | Plant response rating, Redroot pigweed (pigweed; [4]) | Plant response rating, Redroot pigweed (pigweed; [5]) | Redroot pigweed plant response rating (pigweed; [6]) | Redroot pigweed plant response rating (pigweed; [7]) | Redroot pigweed plant response rating (pigweed; [8])
1: Crabgrass plant response rating (crabgrass; [2]) | Crabgrass plant response rating (crabgrass; [8])
